Source: US20040102320A1, “NATURAL HERBICIDE FOR WEED REMOVAL” (priority 2002, published 2004)

System: grass, including crabgrass and other weeds
Conditions: 100% of sodium bicarbonate

O=C([O-])O.[Na+] [sodium bicarbonate]
killing of grass: would kill grass, including crabgrass and other weeds
